Measured values published in US20070003483A1, “Method of evaluating organ function” (Oxygenix Co., Ltd., priority 2003, published 2007).

Tests used:
Mrp2 [1] = target: T1, Mrp2 (Rattus norvegicus, UniProt Q63120); assay: In situ visualization of hepatocellular CF exclusion by intravital laser confocal microfluorography in perfused liver grafts; conditions: grafts perfused with 1.5 mM probenecid
T1 construct: Livers of these rats were perfused ex vivo with the oxygenated Krebs-Henseleit buffer; from tissue; host or cells: whole rat liver grafts (Wistar), perfused ex vivo
Procedure: (§1) Male Wistar rats (220-260 g, CLEA Japan, Tokyo) and Eisai hyperbilirubinemia rats (EHBR) (220-260 g, Sankyo Inc., Tokyo) that had been allowed free access to laboratory chow and tap water were fasted 24 hrs before experiments. Livers of these rats were perfused ex vivo with the oxygenated Krebs-Henseleit buffer as the base-line perfusate (17, 18), and stored in the University of Wisconsin solution at 4° C. for desired lengths of time (14). When necessary, rats were pretreated with an intravenous injection of liposome-encapsulated dichloromethylene diphosphonate (LDD) at 24 hrs prior to preparation of the ex-vivo liver perfusion for the cold storage according to our previous studies (14, 19). […]
Liver grafts loaded with CF using the aforementioned protocols were observed through intravital laser confocal microfluorography as described previously (14, 20, 30). […] To calibrate the fluorescence intensities, known concentrations of CF were prepared in vitro and the images were captured under the identical optical parameters of the camera. Gray levels in hepatocytes were measured by variable square window (2×2 μm^2) using digital image processor (18, 31). At least 10 different hepatocytes in the microscopic fields of interests were analyzed in a single experiment.

Mrp2 [2] = target: T1, Mrp2; assay: Biliary excretion rates of carboxyfluorescein (T1/2 of dye exclusion) in whole perfused liver grafts; conditions: normoperfused grafts in the presence of 1.5 mM probenecid
Procedure: as §1
Carboxyfluorescein (CF) is an organic anion which excreted from various cells through Mrp2 (26, 27). […] Bile samples collected from these preparations were deep-frozen until the fluorescence measurements were carried out using a 96-well multi-channel fluorescence spectrophotometer. The measurements were performed under epi-illumination at 440 nm, the isosbestic wavelength of the dye which yields fluorescence at 510 nm without interference with pH values of the samples (26). […] With this assumption, biliary CF lifetimes were determined as the T1/2 of the exponential decay.

Mrp2 [3] = assay: Immunohistochemical analysis of subcellular Mrp2 distribution in 8-hr cold ischemia-reperfused grafts; parameters: species or system rat; conditions: 8-hr cold ischemia and 60-min reperfusion
Text: To evaluate Mrp2 in hepatocytes of the grafts, the liver samples were fixed, sliced, and stained with a monoclonal antibody M2III-6, according to previous study (32). The antigen on the sections was visualized by phycoerythrin-conjugated anti-mouse IgG and observed through laser confocal microfluorography at 488 nm as described elsewhere (20, 30). In order to examine BC localization and hepatocellular internalization of Mrp2, the sections were double immunostained with a monoclonal antibody against ZO-1, another marker expressed in hepatocellular junction (33). To determine changes in the protein distribution in a semi-quantitative manner, single-stained microfluorographs of Mrp2 were converted as monochrome 8-bit images (14). The gray levels (1-256) were measured at both cytoplasmic and canalicular domains in a single hepatocytes. At least 5 different sites for each domain were chosen in a single cell to calculate the relative values of cytoplasmic intensities versus the corresponding canalicular intensities. Such a measurement was carried out in 40-60 hepatocytes in 4 different grafts to construct histograms of the percentage cytoplasmic intensities of Mrp2-associated immunoreactivities, being defined as % I-Mrp2(cyt/bc). The elevation of this index represented an increase in the Mtp2 internalization. […]

T1 sequence (Q63120 whole entry, the tested form may be a part): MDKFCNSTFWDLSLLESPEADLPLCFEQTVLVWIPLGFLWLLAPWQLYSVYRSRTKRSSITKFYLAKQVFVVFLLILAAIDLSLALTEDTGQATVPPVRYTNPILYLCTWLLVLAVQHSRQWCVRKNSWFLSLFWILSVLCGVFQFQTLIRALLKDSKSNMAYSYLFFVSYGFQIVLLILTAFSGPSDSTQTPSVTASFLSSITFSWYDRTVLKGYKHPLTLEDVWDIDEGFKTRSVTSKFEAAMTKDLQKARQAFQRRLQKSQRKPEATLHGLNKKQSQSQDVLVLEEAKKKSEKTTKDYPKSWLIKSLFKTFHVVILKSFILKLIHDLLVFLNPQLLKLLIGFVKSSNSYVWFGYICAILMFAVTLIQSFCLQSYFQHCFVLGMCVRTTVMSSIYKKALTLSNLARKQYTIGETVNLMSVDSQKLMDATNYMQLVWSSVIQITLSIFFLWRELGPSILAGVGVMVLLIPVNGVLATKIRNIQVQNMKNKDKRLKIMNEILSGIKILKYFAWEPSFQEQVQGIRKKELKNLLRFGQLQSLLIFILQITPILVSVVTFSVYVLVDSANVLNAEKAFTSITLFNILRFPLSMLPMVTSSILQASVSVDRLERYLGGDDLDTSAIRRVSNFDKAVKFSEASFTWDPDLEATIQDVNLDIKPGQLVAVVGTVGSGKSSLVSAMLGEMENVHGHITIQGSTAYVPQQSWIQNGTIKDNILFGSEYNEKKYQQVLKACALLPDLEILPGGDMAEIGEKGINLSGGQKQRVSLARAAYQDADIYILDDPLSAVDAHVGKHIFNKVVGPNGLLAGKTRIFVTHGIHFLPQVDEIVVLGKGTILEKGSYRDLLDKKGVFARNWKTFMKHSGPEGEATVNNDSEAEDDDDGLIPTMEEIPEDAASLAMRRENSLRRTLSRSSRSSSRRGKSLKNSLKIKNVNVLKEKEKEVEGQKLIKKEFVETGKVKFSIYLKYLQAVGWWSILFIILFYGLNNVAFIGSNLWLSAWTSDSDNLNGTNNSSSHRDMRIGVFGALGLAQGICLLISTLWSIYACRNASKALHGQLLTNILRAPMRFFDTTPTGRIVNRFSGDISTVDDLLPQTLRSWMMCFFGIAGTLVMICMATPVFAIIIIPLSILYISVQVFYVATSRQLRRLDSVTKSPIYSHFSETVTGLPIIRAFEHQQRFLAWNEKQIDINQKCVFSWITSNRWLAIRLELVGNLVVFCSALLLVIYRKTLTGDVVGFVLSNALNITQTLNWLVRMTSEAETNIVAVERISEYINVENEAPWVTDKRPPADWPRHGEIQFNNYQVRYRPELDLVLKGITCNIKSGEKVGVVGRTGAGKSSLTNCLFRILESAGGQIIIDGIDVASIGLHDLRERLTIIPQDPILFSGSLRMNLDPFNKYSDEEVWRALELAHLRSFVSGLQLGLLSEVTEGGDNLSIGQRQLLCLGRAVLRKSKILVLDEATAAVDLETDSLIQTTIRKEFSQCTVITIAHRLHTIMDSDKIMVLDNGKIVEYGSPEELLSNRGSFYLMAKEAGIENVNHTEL

| decay of hepatocellular CF fluorescence (Mrp2 transport) (Mrp2 [1]) | transient increase of CF concentrations in bile (Mrp2 [2]) | Compound | Mrp2 internalization (reduced BC localization, elevated cytoplasmic intensity) (Mrp2 [3]) |
| --- | --- | --- | --- |
| substantially slowed | not observed | CCCN(CCC)S(=O)(=O)c1ccc(C(=O)O)cc1 [probenecid] |  |
|  |  | O=C(O)/C=C/c1ccc(Cn2ccnc2)cc1 [OKY-046] | attenuated |
